The assay addresses T1, Human PD-L1/PD-1 (Homo sapiens, UniProt Q9NZQ7).
T1 construct: TVMV protease cleavage site (C); made in house; host or cells: HEK293T cells
Kind of assay: HTRF Human PD-L1/PD-1 binding assay (PD-1-Ig/PD-L1-His). As to conditions: PD-L1-His 10 nM, PD-1-Ig 20 nM. The gist of the method: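 Truncated Fc-fused human PD-1 (aa 25-167) at 20 nM and His-tagged PD-L1 (aa 18-239) at 10 nM final are used, with peptides preincubated 15 min with PD-L1. Detection uses europium-cryptate anti-Ig and APC anti-His antibodies; 665/620 nm ratio.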

The mark [1] stands for this setting: class symbol, read-out: HTRF Human PD-L1/PD-1 Binding Assay IC50 Range.
The mark [2] stands for this setting: read-out: HTRF Human PD-L1/PD-1 Binding Assay IC50.

Like-named read-outs stand apart in the source and are kept apart here. Where a SMILES comes first, the peptide text is derived from it. Bridges are numbered along the chain shown (N, C = ends). [ ]: non-standard residue; d: D form. Phe(3,4,5-F3) = N[C@@H](Cc1cc(F)c(F)c(F)c1)C(=O)O; Phe(4-F) = N[C@@H](Cc1ccc(F)cc1)C(=O)O; NMeF = CN[C@@H](Cc1ccccc1)C(=O)O; NMeNle = CCCC[C@H](NC)C(=O)O; dPip = O=C(O)[C@H]1CCCCN1; hSer = N[C@@H](CCO)C(=O)O; NMeA = CN[C@@H](C)C(=O)O; Orn = NCCC[C@H](N)C(=O)O; dNMeA = CN[C@H](C)C(=O)O

T1 sequence (Q9NZQ7 with tags, fused parts or gaps): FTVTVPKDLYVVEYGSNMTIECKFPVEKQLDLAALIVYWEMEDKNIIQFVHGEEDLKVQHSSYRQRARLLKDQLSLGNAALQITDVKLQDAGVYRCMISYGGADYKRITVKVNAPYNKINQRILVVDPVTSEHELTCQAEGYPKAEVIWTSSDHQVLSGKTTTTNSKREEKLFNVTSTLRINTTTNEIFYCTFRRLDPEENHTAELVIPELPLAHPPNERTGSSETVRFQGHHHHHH

Regarding `CC(C)C[C@@H]1NC(=O)[C@H](Cc2ccc(O)cc2)NC(=O)[C@H](Cc2c[nH]c3ccccc23)NC(=O)[C@@H](C)N(C)C(=O)[C@H](Cc2ccc(O)cc2)NC(=O)[C@H](Cc2ccccc2)N(C)C(=O)[C@H](C(C)C)NC(=O)[C@H](CC(=O)O)NC(=O)[C@@H](C)N(C)C(=O)[C@H](C)N(C)C(=O)[C@H](Cc2ccccc2)N(C)C(=O)[C@H](Cc2cc(F)c(F)c(F)c2)NC(=O)CSC[C@@H](C(=O)NCC(N)=O)NC1=O` [Example 9188] ({CH2CO}-[Phe(3,4,5-F3)][NMeF][NMeA][dNMeA]DV[NMeF]Y[dNMeA]WYLCG-NH2; thioether N-13), the IC50 under setting [1] was in the range of 0.001 to 0.0099 µM.

`CC(C)C[C@@H]1NC(=O)[C@H](Cc2ccc(O)cc2)NC(=O)[C@H](Cc2c[nH]c3ccccc23)NC(=O)[C@@H](C)N(C)C(=O)[C@H](Cc2ccc(O)cc2)NC(=O)[C@H](Cc2ccccc2)N(C)C(=O)[C@H](C(C)C)NC(=O)[C@H](CCC(=O)O)NC(=O)[C@@H](C)N(C)C(=O)[C@H](C)N(C)C(=O)[C@H](Cc2ccccc2)N(C)C(=O)[C@H](Cc2cc(F)c(F)c(F)c2)NC(=O)CSC[C@@H](C(=O)NCC(N)=O)NC1=O` [Example 9189] ({CH2CO}-[Phe(3,4,5-F3)][NMeF][NMeA][dNMeA]EV[NMeF]Y[dNMeA]WYLCG-NH2; thioether N-13): the IC50 under setting [1] fell in the range of 0.001 to 0.0099 µM. For the compound `CC(C)C[C@@H]1NC(=O)[C@H](Cc2ccc(O)cc2)NC(=O)[C@H](Cc2c[nH]c3ccccc23)NC(=O)[C@@H](C)N(C)C(=O)[C@H](Cc2ccc(O)cc2)NC(=O)[C@H](Cc2ccccc2)N(C)C(=O)[C@H](C(C)C)NC(=O)[C@H](CC(N)=O)NC(=O)[C@@H](C)N(C)C(=O)[C@H](C)N(C)C(=O)[C@H](Cc2ccccc2)N(C)C(=O)[C@H](Cc2cc(F)c(F)c(F)c2)NC(=O)CSC[C@@H](C(=O)NCC(N)=O)NC1=O` [Example 9190] ({CH2CO}-[Phe(3,4,5-F3)][NMeF][NMeA][dNMeA]NV[NMeF]Y[dNMeA]WYLCG-NH2; thioether N-13), under setting [1], the IC50 was in the range of 0.01 to 0.0999 µM. The same measure, in the same setting: with `CC(C)C[C@@H]1NC(=O)[C@H](Cc2ccc(O)cc2)NC(=O)[C@H](Cc2c[nH]c3ccccc23)NC(=O)[C@@H](C)N(C)C(=O)[C@H](Cc2ccc(O)cc2)NC(=O)[C@H](Cc2ccccc2)N(C)C(=O)[C@H](C(C)C)NC(=O)[C@H](CCC(N)=O)NC(=O)[C@@H](C)N(C)C(=O)[C@H](C)N(C)C(=O)[C@H](Cc2ccccc2)N(C)C(=O)[C@H](Cc2cc(F)c(F)c(F)c2)NC(=O)CSC[C@@H](C(=O)NCC(N)=O)NC1=O` [Example 9191] ({CH2CO}-[Phe(3,4,5-F3)][NMeF][NMeA][dNMeA]QV[NMeF]Y[dNMeA]WYLCG-NH2; thioether N-13) the figure was 0.01 to 0.0999 µM.

With `CC(C)C[C@@H]1NC(=O)[C@H](Cc2ccc(O)cc2)NC(=O)[C@H](Cc2c[nH]c3ccccc23)NC(=O)[C@@H](C)N(C)C(=O)[C@H](Cc2ccc(O)cc2)NC(=O)[C@H](Cc2ccccc2)N(C)C(=O)[C@H](C(C)C)NC(=O)[C@H](CCO)NC(=O)[C@@H](C)N(C)C(=O)[C@H](C)N(C)C(=O)[C@H](Cc2ccccc2)N(C)C(=O)[C@H](Cc2cc(F)c(F)c(F)c2)NC(=O)CSC[C@@H](C(=O)NCC(N)=O)NC1=O` [Example 9192] ({CH2CO}-[Phe(3,4,5-F3)][NMeF][NMeA][dNMeA][hSer]V[NMeF]Y[dNMeA]WYLCG-NH2; thioether N-13), the IC50 under setting [2] is 0.014 µM. For the compound `CC(C)[C@@H]1NC(=O)[C@H](CC(=O)O)NC(=O)[C@@H](C)N(C)C(=O)[C@H](C)N(C)C(=O)[C@H](Cc2ccccc2)N(C)C(=O)[C@H](Cc2cc(F)c(F)c(F)c2)NC(=O)CSC[C@@H](C(=O)NCC(N)=O)NC(=O)[C@H](CCCN)NC(=O)[C@H](Cc2ccc(O)cc2)NC(=O)[C@H](Cc2c[nH]c3ccccc23)NC(=O)[C@@H](C)N(C)C(=O)[C@H](Cc2ccc(O)cc2)NC(=O)[C@H](Cc2ccccc2)N(C)C1=O` [Example 9193] ({CH2CO}-[Phe(3,4,5-F3)][NMeF][NMeA][dNMeA]DV[NMeF]Y[dNMeA]WY[Orn]CG-NH2; thioether N-13), the IC50 under setting [1] was 0.001 to 0.0099 µM. As to `CC(C)[C@@H]1NC(=O)[C@H](CCC(=O)O)NC(=O)[C@@H](C)N(C)C(=O)[C@H](C)N(C)C(=O)[C@H](Cc2ccccc2)N(C)C(=O)[C@H](Cc2cc(F)c(F)c(F)c2)NC(=O)CSC[C@@H](C(=O)NCC(N)=O)NC(=O)[C@H](CCCN)NC(=O)[C@H](Cc2ccc(O)cc2)NC(=O)[C@H](Cc2c[nH]c3ccccc23)NC(=O)[C@@H](C)N(C)C(=O)[C@H](Cc2ccc(O)cc2)NC(=O)[C@H](Cc2ccccc2)N(C)C1=O` [Example 9194] ({CH2CO}-[Phe(3,4,5-F3)][NMeF][NMeA][dNMeA]EV[NMeF]Y[dNMeA]WY[Orn]CG-NH2; thioether N-13), the IC50 under setting [1] was 0.001 to 0.0099 µM.

Consider `CC(C)[C@@H]1NC(=O)[C@H](CC(N)=O)NC(=O)[C@@H](C)N(C)C(=O)[C@H](C)N(C)C(=O)[C@H](Cc2ccccc2)N(C)C(=O)[C@H](Cc2cc(F)c(F)c(F)c2)NC(=O)CSC[C@@H](C(=O)NCC(N)=O)NC(=O)[C@H](CCCN)NC(=O)[C@H](Cc2ccc(O)cc2)NC(=O)[C@H](Cc2c[nH]c3ccccc23)NC(=O)[C@@H](C)N(C)C(=O)[C@H](Cc2ccc(O)cc2)NC(=O)[C@H](Cc2ccccc2)N(C)C1=O` [Example 9195] ({CH2CO}-[Phe(3,4,5-F3)][NMeF][NMeA][dNMeA]NV[NMeF]Y[dNMeA]WY[Orn]CG-NH2; thioether N-13), for which, under setting [1], the IC50 lay in the range of 0.001 to 0.0099 µM. As for `CC(C)[C@@H]1NC(=O)[C@H](CCC(N)=O)NC(=O)[C@@H](C)N(C)C(=O)[C@H](C)N(C)C(=O)[C@H](Cc2ccccc2)N(C)C(=O)[C@H](Cc2cc(F)c(F)c(F)c2)NC(=O)CSC[C@@H](C(=O)NCC(N)=O)NC(=O)[C@H](CCCN)NC(=O)[C@H](Cc2ccc(O)cc2)NC(=O)[C@H](Cc2c[nH]c3ccccc23)NC(=O)[C@@H](C)N(C)C(=O)[C@H](Cc2ccc(O)cc2)NC(=O)[C@H](Cc2ccccc2)N(C)C1=O` [Example 9196] ({CH2CO}-[Phe(3,4,5-F3)][NMeF][NMeA][dNMeA]QV[NMeF]Y[dNMeA]WY[Orn]CG-NH2; thioether N-13), the IC50 under setting [2] stood at 0.0045 µM. With `CCCC[C@H]1C(=O)N[C@@H](Cc2ccc(O)cc2)C(=O)N2CCC[C@@H]2C(=O)N[C@@H](Cc2c[nH]c3ccccc23)C(=O)N[C@@H](Cc2ccc(O)cc2)C(=O)N[C@@H](CC(C)C)C(=O)N[C@H](C(=O)NCC(N)=O)CSCC(=O)N[C@@H](Cc2cc(F)c(F)c(F)c2)C(=O)N(C)[C@@H](Cc2ccccc2)C(=O)N(C)[C@@H](CCCC)C(=O)N2CCC[C@@H]2C(=O)N[C@@H](CC(=O)O)C(=O)N[C@@H](C(C)C)C(=O)N1C` [Example 9213] ({CH2CO}-[Phe(3,4,5-F3)][NMeF][NMeNle][dP]DV[NMeNle]Y[dP]WYLCG-NH2; thioether N-13), the IC50 under setting [1] is 0.01 to 0.0999 µM.

`CCCC[C@H]1C(=O)N[C@@H](Cc2ccc(O)cc2)C(=O)N2CCCC[C@@H]2C(=O)N[C@@H](Cc2c[nH]c3ccccc23)C(=O)N[C@@H](Cc2ccc(O)cc2)C(=O)N[C@@H](CC(C)C)C(=O)N[C@H](C(=O)NCC(N)=O)CSCC(=O)N[C@@H](Cc2ccc(F)cc2)C(=O)N(C)[C@@H](Cc2ccccc2)C(=O)N(C)[C@@H](CCCC)C(=O)N2CCC[C@@H]2C(=O)N[C@@H](CC(=O)O)C(=O)N[C@@H](C(C)C)C(=O)N1C` [Example 9214] ({CH2CO}-[Phe(4-F)][NMeF][NMeNle][dP]DV[NMeNle]Y[dPip]WYLCG-NH2; thioether N-13): the IC50 under setting [1] was 0.1 to 0.99 µM. In the case of `CCCC[C@H]1C(=O)N[C@@H](CCC(N)=O)C(=O)N2CCC[C@@H]2C(=O)N[C@@H](Cc2c[nH]c3ccccc23)C(=O)N[C@@H](Cc2ccc(O)cc2)C(=O)N[C@@H](CC(C)C)C(=O)N[C@H](C(=O)NCC(N)=O)CSCC(=O)N[C@@H](Cc2ccc(F)cc2)C(=O)N(C)[C@@H](Cc2ccccc2)C(=O)N(C)[C@@H](CCCC)C(=O)N2CCC[C@@H]2C(=O)N[C@@H](CC(=O)O)C(=O)N[C@@H](C(C)C)C(=O)N1C` [Example 9215] ({CH2CO}-[Phe(4-F)][NMeF][NMeNle][dP]DV[NMeNle]Q[dP]WYLCG-NH2; thioether N-13), the IC50 under setting [1] fell in the range of 0.01 to 0.0999 µM. On to `CCCC[C@H]1C(=O)N[C@@H](CCC(N)=O)C(=O)N2CCCC[C@@H]2C(=O)N[C@@H](Cc2c[nH]c3ccccc23)C(=O)N[C@@H](Cc2ccc(O)cc2)C(=O)N[C@@H](CC(C)C)C(=O)N[C@H](C(=O)NCC(N)=O)CSCC(=O)N[C@@H](Cc2ccc(F)cc2)C(=O)N(C)[C@@H](Cc2ccccc2)C(=O)N(C)[C@@H](CCCC)C(=O)N2CCC[C@@H]2C(=O)N[C@@H](CC(=O)O)C(=O)N[C@@H](C(C)C)C(=O)N1C` [Example 9216] ({CH2CO}-[Phe(4-F)][NMeF][NMeNle][dP]DV[NMeNle]Q[dPip]WYLCG-NH2; thioether N-13), for which the IC50 under setting [1] fell in the range of 0.01 to 0.0999 µM. On the same count and under the same terms, for `CCCC[C@H]1C(=O)N[C@@H](CCC(N)=O)C(=O)N2CCC[C@@H]2C(=O)N[C@@H](Cc2c[nH]c3ccccc23)C(=O)N[C@@H](Cc2ccc(O)cc2)C(=O)N[C@@H](CCCN)C(=O)N[C@H](C(=O)NCC(N)=O)CSCC(=O)N[C@@H](Cc2ccc(F)cc2)C(=O)N(C)[C@@H](Cc2ccccc2)C(=O)N(C)[C@@H](CCCC)C(=O)N2CCC[C@@H]2C(=O)N[C@@H](CC(=O)O)C(=O)N[C@@H](C(C)C)C(=O)N1C` [Example 9217] ({CH2CO}-[Phe(4-F)][NMeF][NMeNle][dP]DV[NMeNle]Q[dP]WY[Orn]CG-NH2; thioether N-13) the value was 0.1 to 0.99 µM. Same read-out and setting: with `CCCC[C@H]1C(=O)N[C@@H](CCC(N)=O)C(=O)N2CCCC[C@@H]2C(=O)N[C@@H](Cc2c[nH]c3ccccc23)C(=O)N[C@@H](Cc2ccc(O)cc2)C(=O)N[C@@H](CCCN)C(=O)N[C@H](C(=O)NCC(N)=O)CSCC(=O)N[C@@H](Cc2ccc(F)cc2)C(=O)N(C)[C@@H](Cc2ccccc2)C(=O)N(C)[C@@H](CCCC)C(=O)N2CCC[C@@H]2C(=O)N[C@@H](CC(=O)O)C(=O)N[C@@H](C(C)C)C(=O)N1C` [Example 9218] ({CH2CO}-[Phe(4-F)][NMeF][NMeNle][dP]DV[NMeNle]Q[dPip]WY[Orn]CG-NH2; thioether N-13) the figure was 0.01 to 0.0999 µM.

Values taken from patent US10538555B2, “Macrocyclic inhibitors of the PD-1/PD-L1 and CD80(B7-1)/PD-L1 protein/protein interactions” (BRISTOL-MYERS SQUIBB COMPANY, priority 2014, dated 2020).
